According to patent US20240376099A1, “COMPOUNDS AND COMPOSITIONS AS INHIBITORS OF ENDOSOMAL TOLL-LIKE RECEPTORS” (Novartis AG, priority 2016, published 2024):

Molecular target: T1, TLR9 (Homo sapiens, UniProt Q9NR96)
T1 construct: Fresh blood was collected from normal human donors; endogenous in cells; host or cells: human PBMCs from fresh donor blood
T1 sequence (Q9NR96 26-1032): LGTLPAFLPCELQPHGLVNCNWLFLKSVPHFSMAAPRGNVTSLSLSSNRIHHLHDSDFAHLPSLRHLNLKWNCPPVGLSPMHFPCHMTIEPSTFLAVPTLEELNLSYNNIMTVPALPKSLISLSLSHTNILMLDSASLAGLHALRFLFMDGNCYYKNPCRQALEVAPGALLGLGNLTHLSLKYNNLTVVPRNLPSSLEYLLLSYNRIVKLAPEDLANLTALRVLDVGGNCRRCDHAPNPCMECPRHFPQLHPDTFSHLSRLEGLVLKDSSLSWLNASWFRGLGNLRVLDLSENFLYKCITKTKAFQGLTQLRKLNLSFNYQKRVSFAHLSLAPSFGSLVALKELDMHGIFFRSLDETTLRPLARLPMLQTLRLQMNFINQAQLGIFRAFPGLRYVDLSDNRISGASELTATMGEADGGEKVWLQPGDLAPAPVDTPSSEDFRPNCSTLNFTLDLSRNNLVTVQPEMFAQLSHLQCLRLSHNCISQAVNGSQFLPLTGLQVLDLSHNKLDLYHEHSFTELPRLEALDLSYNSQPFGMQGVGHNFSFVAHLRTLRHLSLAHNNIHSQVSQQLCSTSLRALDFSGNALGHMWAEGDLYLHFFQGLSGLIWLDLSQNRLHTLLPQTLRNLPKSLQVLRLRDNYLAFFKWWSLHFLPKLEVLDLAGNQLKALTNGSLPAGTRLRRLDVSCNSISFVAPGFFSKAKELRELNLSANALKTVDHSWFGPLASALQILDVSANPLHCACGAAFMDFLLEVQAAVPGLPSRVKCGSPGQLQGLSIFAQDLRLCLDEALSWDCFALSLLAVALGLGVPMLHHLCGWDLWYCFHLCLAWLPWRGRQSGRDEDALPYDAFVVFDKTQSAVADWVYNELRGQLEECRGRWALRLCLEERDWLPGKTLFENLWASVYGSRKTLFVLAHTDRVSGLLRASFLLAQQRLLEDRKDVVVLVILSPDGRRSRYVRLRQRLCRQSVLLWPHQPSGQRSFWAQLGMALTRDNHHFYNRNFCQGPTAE
Experiment: huPBMC TLR9 Antagonist IFNα Assay
Format: cell-based
Settings: human PBMCs stimulated with ODN2216 0.3 μM, 14-16 hrs; IFNα2b AlphaLISA read-out
In short: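 Human PBMCs from fresh donor blood (150,000 cells/well) stimulated 14–16 h at 37 °C with DOTAP-complexed ssRNA40 (final 1 μg/ml for TLR8, 10 μg/mL for TLR7) or ODN2216 (final 0.3 μM, TLR9), 0.25% DMSO, ten-point 1/3 compound dilutions. Supernatant IL-6 read by HTRF (TLR8); IFNα by IFNα2b AlphaLISA (TLR7/TLR9).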

IC50 [µM]	Compound
0.515	Cc1cc(N2CCc3c(c(C)nn3CC34CCC(N5CCO[C@@H](C)C5)(CC3)CC4)C2)c2cnn(C)c2n1 [compound 109, (S)-4-(4-((5-(1,6-dimethyl-1H-pyrazolo[3,4-b]pyridin-4-yl)-3-methyl-4,5,6,7-tetrahydro-1H-pyrazolo[4,3-c]pyridin-1-yl)methyl)bicyclo[2.2.2]octan-1-yl)-2-methylmorpholine]
1.9	Cc1cc(N2CCc3c(c(C)nn3CC34CCC(N5C[C@@H](C)O[C@@H](C)C5)(CC3)CC4)C2)c2cnn(C)c2n1 [compound 110, (2S,6R)-4-(4-((5-(1,6-dimethyl-1H-pyrazolo[3,4-b]pyridin-4-yl)-3-methyl-4,5,6,7-tetrahydro-1H-pyrazolo[4,3-c]pyridin-1-yl)methyl)bicyclo[2.2.2]octan-1-yl)-2,6-dimethylmorpholine]
1.19	Cc1cc(N2CCc3c(c(C)nn3CC34CCC(NCC5CCC5)(CC3)CO4)C2)c2cnn(C)c2n1 [compound 112, N-(cyclobutylmethyl)-1-((5-(1,6-dimethyl-1H-pyrazolo[3,4-b]pyridin-4-yl)-3-methyl-4,5,6,7-tetrahydro-1H-pyrazolo[4,3-c]pyridin-1-yl)methyl)-2-oxabicyclo[2.2.2]octan-4-amine]
1.41	Cc1cc(N2CCc3c(c(C)nn3CC34CCC(N5C[C@@H](C)O[C@H](C)C5)(CC3)CC4)C2)c2cnn(C)c2n1 [compound 113, (2R,6R)-4-(4-((5-(1,6-dimethyl-1H-pyrazolo[3,4-b]pyridin-4-yl)-3-methyl-4,5,6,7-tetrahydro-1H-pyrazolo[4,3-c]pyridin-1-yl)methyl)bicyclo[2.2.2]octan-1-yl)-2,6-dimethylmorpholine]
1.55	CCNCC(=O)NC12CCC(Cn3nc(C)c4c3CCN(c3cc(C)nc5c3cnn5C)C4)(CC1)CC2 [compound 114, N-(4-((5-(1,6-dimethyl-1H-pyrazolo[3,4-b]pyridin-4-yl)-3-methyl-4,5,6,7-tetrahydro-1H-pyrazolo[4,3-c]pyridin-1-yl)methyl)bicyclo[2.2.2]octan-1-yl)-2-(ethylamino)acetamide]
> 10	Cc1cc(N2CCc3c(c(C)nn3CC34CCC(NC(=O)CCN)(CC3)CC4)C2)c2cnn(C)c2n1 [compound 115, 3-amino-N-(4-((5-(1,6-dimethyl-1H-pyrazolo[3,4-b]pyridin-4-yl)-3-methyl-4,5,6,7-tetrahydro-1H-pyrazolo[4,3-c]pyridin-1-yl)methyl)bicyclo[2.2.2]octan-1-yl)propanamide]
0.775	CN[C@@H](C)C(=O)NC12CCC(Cn3nc(C)c4c3CCN(c3cc(C)nc5c3cnn5C)C4)(CC1)CC2 [compound 118]
0.909	Cc1cc(N2CCc3c(c(C)nn3CC34CCC(NC(=O)C5CNCCO5)(CC3)CC4)C2)c2cnn(C)c2n1 (stereo not shown) [compound 125, N-(4-((5-(1,6-dimethyl-1H-pyrazolo[3,4-b]pyridin-4-yl)-3-methyl-4,5,6,7-tetrahydro-1H-pyrazolo[4,3-c]pyridin-1-yl)methyl)bicyclo[2.2.2]octan-1-yl)morpholine-2-carboxamide]
9.53	CCNCCC(=O)NC12CCC(Cn3nc(C)c4c3CCN(c3cc(C)nc5c3cnn5C)C4)(CC1)CC2 [compound 126, N-(4-((5-(1,6-dimethyl-1H-pyrazolo[3,4-b]pyridin-4-yl)-3-methyl-4,5,6,7-tetrahydro-1H-pyrazolo[4,3-c]pyridin-1-yl)methyl)bicyclo[2.2.2]octan-1-yl)-3-(ethylamino)propanamide]
0.545	CCNC12CCC(Cn3nc(C)c4c3CCN(c3ccnc(-c5ccccc5)c3)C4)(CC1)CC2 [compound 127, N-ethyl-4-((3-methyl-5-(2-phenylpyridin-4-yl)-4,5,6,7-tetrahydro-1H-pyrazolo[4,3-c]pyridin-1-yl)methyl)bicyclo[2.2.2]octan-1-amine]

Continued, compound first:

Compound	IC50 [µM]
Cc1cc(N2CCc3c(c(C)nn3CC34CCC(N5C[C@H](C)O[C@@H](C)C5)(CC3)CC4)C2)c2cnn(C)c2n1 [compound 111, (2S,6S)-4-(4-((5-(1,6-dimethyl-1H-pyrazolo[3,4-b]pyridin-4-yl)-3-methyl-4,5,6,7-tetrahydro-1H-pyrazolo[4,3-c]pyridin-1-yl)methyl)bicyclo[2.2.2]octan-1-yl)-2,6-dimethylmorpholine]	1.41
Cc1cc(N2CCc3c(c(C)nn3CC34CCC(N5CC6(COC6)C5)(CC3)CC4)C2)c2cnn(C)c2n1 [compound 116, 6-(4-((5-(1,6-dimethyl-1H-pyrazolo[3,4-b]pyridin-4-yl)-3-methyl-4,5,6,7-tetrahydro-1H-pyrazolo[4,3-c]pyridin-1-yl)methyl)bicyclo[2.2.2]octan-1-yl)-2-oxa-6-azaspiro[3.3]heptane]	1.57
CN[C@H](C)C(=O)NC12CCC(Cn3nc(C)c4c3CCN(c3cc(C)nc5c3cnn5C)C4)(CC1)CC2 [compound 117, (R)-N-(4-((5-(1,6-dimethyl-1H-pyrazolo[3,4-b]pyridin-4-yl)-3-methyl-4,5,6,7-tetrahydro-1H-pyrazolo[4,3-c]pyridin-1-yl)methyl)bicyclo[2.2.2]octan-1-yl)-2-(methylamino)propanamide]	0.954
CNCC(=O)NC12CCC(Cn3nc(C)c4c3CCN(c3cc(C)nc5c3cnn5C)C4)(CC1)CC2 [compound 121, N-(4-((5-(1,6-dimethyl-1H-pyrazolo[3,4-b]pyridin-4-yl)-3-methyl-4,5,6,7-tetrahydro-1H-pyrazolo[4,3-c]pyridin-1-yl)methyl)bicyclo[2.2.2]octan-1-yl)-2-(methylamino)acetamide]	1.44
Cc1cc(N2CCc3c(c(C)nn3CC34CCC(NCC(C)(C)O)(CC3)CC4)C2)c2cnn(C)c2n1 [compound 123, 1-((4-((5-(1,6-dimethyl-1H-pyrazolo[3,4-b]pyridin-4-yl)-3-methyl-4,5,6,7-tetrahydro-1H-pyrazolo[4,3-c]pyridin-1-yl)methyl)bicyclo[2.2.2]octan-1-yl)amino)-2-methylpropan-2-ol]	2.23
CCNCC(=O)NC12CCC(Cn3nc(C)c4c3CCN(c3cc(C)nc5cn[nH]c35)C4)(CC1)CC2 [compound 124, 2-(ethylamino)-N-(4-((3-methyl-5-(5-methyl-1H-pyrazolo[4,3-b]pyridin-7-yl)-4,5,6,7-tetrahydro-1H-pyrazolo[4,3-c]pyridin-1-yl)methyl)bicyclo[2.2.2]octan-1-yl)acetamide]	> 10
Cc1cc(N2CCc3c(c(C)nn3CC34CCC(N5CCOC[C@@H]5C)(CC3)CC4)C2)c2cnn(C)c2n1 [compound 128, (S)-4-(4-((5-(1,6-dimethyl-1H-pyrazolo[3,4-b]pyridin-4-yl)-3-methyl-4,5,6,7-tetrahydro-1H-pyrazolo[4,3-c]pyridin-1-yl)methyl)bicyclo[2.2.2]octan-1-yl)-3-methylmorpholine]	0.792
Cc1cc(N2CCc3c(c(C)nn3CC34CCC(N5CCOC[C@H]5C)(CC3)CC4)C2)c2cnn(C)c2n1 [compound 129, (R)-4-(4-((5-(1,6-dimethyl-1H-pyrazolo[3,4-b]pyridin-4-yl)-3-methyl-4,5,6,7-tetrahydro-1H-pyrazolo[4,3-c]pyridin-1-yl)methyl)bicyclo[2.2.2]octan-1-yl)-3-methylmorpholine]	1.05
COCCNC12CCC(Cn3nc(C)c4c3CCN(c3ccnc(-c5ccccc5)c3)C4)(CC1)CC2 [compound 130, N-(2-methoxyethyl)-4-((3-methyl-5-(2-phenylpyridin-4-yl)-4,5,6,7-tetrahydro-1H-pyrazolo[4,3-c]pyridin-1-yl)methyl)bicyclo[2.2.2]octan-1-amine]	0.672
